From EPA's ToxValDB 9.5
Values after ≈ are worked out from the molar mass of the structure shown. Values joined by “and” are separate entries in the source; they are usually repeats but may differ in a detail not shown here. Equal values may be shown once.

What was measured:
Ovis sp. = settings: for LD50: acute, mortality
Oryctolagus sp. = settings: reproduction developmental
Pontoscolex corethrurus = settings: mortality
Bovidae = settings: subchronic; duration: 57 days; oral; diet; no effects
Sus scrofa = settings: Not specified
Danio rerio = settings: acute; duration: 96 hours; mortality
Apis mellifera = settings: acute, mortality
[1] = short-term, oral, feed, mortality
[2] = subchronic, duration: 13 weeks, oral, diet, M/F, no effects

Cc1cc(OC2OC(CO)C(O)C(O)C2O)ccc1C(=O)C(C)(C)NC(=O)c1sccc1C (stereo not drawn)
NOAEL (Canidae; chronic, duration: 1 years, Dog Other, body weight): 1.57 mg/kg-day | NOAEL (Canidae; subchronic, duration: 90 days, oral, Dog Other, body weight): 5.34 mg/kg-day

Clc1ccc(C(c2ccccc2Cl)C(Cl)Cl)cc1 (stereo not drawn) [1-(2-Chlorophenyl)-1-(4-chlorophenyl)-2,2-dichloroethane]
LEL (Ovis sp.; subchronic, oral, diet, F, no effects): 0.3 mg/kg-day

c1nc[nH]n1 [1H-1,2,4-Triazole]
LC50 (Anas platyrhynchos; [1]): > 1350 mg/kg-day | LC50 (Colinus virginianus; acute, oral, diet, mortality): > 1410 mg/kg-day | NOAEL (Oryctolagus sp.; body weight): 30 mg/kg-day | NOAEL (Rattus norvegicus; chronic, duration: 12 months, body weight): 6.9 mg/kg-day | NOAEL (Rattus norvegicus; reproduction developmental): 17 mg/kg-day (2×) and 30 mg/kg-day (2×)

C/C=C(\C)C(=O)O [2-Butenoic acid, 2-methyl-, (2E)-]
LC50 (Pontoscolex corethrurus; acute): 2010 mg/kg

CC1=C(/C=C/C(C)=C/C=C/C(C)=C/C=C/C=C(C)/C=C/C=C(C)/C=C/C2=C(C)C(=O)[C@@H](O)CC2(C)C)C(C)(C)C[C@H](O)C1=O [3,3'-Dihydroxy-beta-carotene-4,4'-dione]
NOAEL (Mus musculus; chronic, duration: 80 weeks, oral, body weight): 14 mg/kg-day

C=C(C)C1CC=C(CO)CC1 (stereo not drawn) [4-Isopropenylcyclohex-1-en-1-ylmethanol]
LEL (Canidae; subchronic, duration: 90 days, Dog Other, no effects): 120 mg/kg-day | LEL (Rattus norvegicus; subchronic, duration: 90 days, oral, gavage, F, no effects): 120 mg/kg-day

CC=Cc1ccc(OC)c(OC)c1 [4-Prop-1-enylveratrole]
NOAEL (repeat dose other): 6 mg/kg-day | NOAEL (Rattus norvegicus; short-term, duration: 28 days, oral, organ weight): 100 mg/kg-day

CC(C)(c1ccc(O)cc1)c1ccc(O)cc1 [Bisphenol A]
NOAEL (Mus musculus; reproduction developmental, M/F, CD1, organ weight): 5 mg/kg-day

O=c1c(CO)c/c(=N/Nc2ccc(S(=O)(=O)[O-])c3ccccc23)c(=O)/c1=N/Nc1ccc(S(=O)(=O)[O-])c2ccccc12.[Na+].[Na+] [Chocolate Brown HT]
NOAEL (Mus musculus; chronic, duration: 80 weeks, oral, diet, M/F, histopathology: nonneoplastic): 143 mg/kg-day

CSCCC(O)C(=O)[O-].CSCCC(O)C(=O)[O-].[Cu+2] (stereo not drawn) [Copper, bis[2-(hydroxy-?O)-4-(methylthio)butanoato-?O]-]
LEL (Bovidae): 45 mg/kg-day | LEL (Gallus gallus; subchronic, duration: 8 weeks, oral, diet, clinical chemistry): 75 mg/kg-day | LEL (Gallus gallus; subchronic, duration: 35 days, oral, diet, M, other): 500 mg/kg-day | LEL (Sus scrofa; subchronic, duration: 42 days, oral, diet, body weight): 340 mg/kg-day

C/C=C/C(=O)Oc1ccccc1[N+](=O)[O-].CCCCCCCC.O=NO [Dinocap]
LD50 (Anas platyrhynchos; [1]): 367 mg/kg-day | NOAEL (Canidae; chronic, duration: 2 years, oral, Dog Other, ophthalmoscopic examination): 0.4 mg/kg-day | LD50 (Colinus virginianus; acute, oral, mortality): > 2150 mg/kg-day | NOEL (Colinus virginianus; reproduction developmental, reproduction): 27.5 mg/kg-day | NOAEL (Oryctolagus sp.; oral): 3 mg/kg-day

CC(=O)Sc1cc(C)oc1C [Ethanethioic acid, S-(2,5-dimethyl-3-furanyl) ester]
NOAEL (subchronic, duration: 90 days): 0.73 mg/kg-day | NOAEL (Rattus norvegicus; subchronic, duration: 90 days): 0.73 mg/kg-day

CCN(Cc1cccc(S(=O)(=O)[O-])c1)c1ccc(C(=C2C=CC(=[N+](CC)Cc3cccc(S(=O)(=O)[O-])c3)C=C2)c2ccccc2S(=O)(=O)[O-])cc1.[Na+].[Na+] [FD&C Blue No. 1]
NOAEL (Rattus norvegicus; chronic, duration: 30 months, oral, diet, M/F, mortality): 631 mg/kg-day | NOAEL (Rattus norvegicus; chronic, other): 631 mg/kg-day

NCC(=O)[O-].NCC(=O)[O-].[Fe+2] [Ferrous bisglycinate]
LD50 (Rattus norvegicus; acute, oral, M/F, mortality): 2800 mg/kg-day | NOAEL (Rattus norvegicus; subchronic, duration: 13 weeks, oral, Sprague-Dawley, no effects): 500 mg/kg-day

C=O [Formaldehyde]
LEL (Gallus gallus; short-term, duration: 28 days, oral, diet, no effects): 990 mg/kg-day | NOAEL (Rattus norvegicus; chronic, duration: 104 weeks, oral, drinking water, M/F, Wistar, histopathology: nonneoplastic): 15 mg/kg-day

CCOC(OCC)c1ccco1 [Furan, 2-(diethoxymethyl)-]
NOEL (Rattus norvegicus; subchronic, duration: 90 days, oral, diet, M/F, Fischer 344, hematological): 54 mg/kg-day

CC(C=O)c1ccccc1 (stereo not drawn) [Hydratropaldehyde]
NOAEL (Rattus norvegicus; chronic, duration: 15 weeks, oral, gavage, M/F, organ weight): 50 mg/kg-day

OO [Hydrogen peroxide]
NOAEL (Mus musculus; subchronic, duration: 90 days, oral, drinking water, M/F, food consumption): 100 mg/kg-day

C=CCOC(Cn1ccnc1)c1ccc(Cl)cc1Cl (stereo not drawn) [Imazalil]
NOAEL (Oryctolagus sp.; food consumption): 10 mg/kg-day | NOAEL (Oryctolagus sp.; histopathology: nonneoplastic): 5 mg/kg-day

NCCCC[C@H](N)C(=O)O.O=S(=O)(O)O [L-Lysine sulphate]
LEL (Rattus norvegicus; subchronic, duration: 90 days, oral, gavage, M/F, Sprague-Dawley, histopathology: neoplastic): 1000 mg/kg-day

C=CC(C)(O)CCC=C(C)C (stereo not drawn) [Linalool]
NOAEL (Rattus norvegicus; short-term, duration: 28 days, oral, M/F, histopathology: nonneoplastic): 117 mg/kg-day

CSCCC(O)C(=O)[O-].CSCCC(O)C(=O)[O-].[Mn+2] (stereo not drawn) [Manganese, bis[2-(hydroxy-?O)-4-(methylthio)butanoato-?O]-]
LEL (Bovidae): 450 mg/kg-day | LEL (Gallus gallus; subchronic, duration: 8 weeks, oral, diet, no effects): 450 mg/kg-day | LEL (Sus scrofa; subchronic, duration: 42 days, oral, diet, clinical chemistry): 150 mg/kg-day

COC(=O)c1cc(Cl)ccc1Cl [Methyl 2,5-dichlorobenzoate]
NOAEL (Rattus norvegicus; short-term, duration: 28 days, oral, clinical signs): 100 mg/kg-day

CNc1ccccc1C(=O)OC [Methyl N-methylanthranilate]
NOAEL (Rattus norvegicus; subchronic, duration: 90 days, organ weight): 20 mg/kg-day

COC(=O)c1ccccc1O [Methyl salicylate]
NOAEL (Canidae; chronic, duration: 2 years, Dog Other): 50 mg/kg-day | NOAEL (Rattus norvegicus; chronic, duration: 2 years, oral, growth): 50 mg/kg-day

COC(=O)CSCc1ccco1 [Methyl {[(furan-2-yl)methyl]sulfanyl}acetate]
NOAEL (Rattus norvegicus; subchronic, duration: 90 days, oral, diet, M/F, clinical chemistry): 5.78 mg/kg-day

C=CC(=C)CCC=C(C)C [Myrcene]
NOAEL (Rattus norvegicus; subchronic, duration: 90 days, oral, diet, M/F, Sprague-Dawley, no effects): 44 mg/kg-day

C[C@@H]1O[C@@H](O[C@H]2[C@H](Oc3cc(O)c4c(c3)O[C@H](c3ccc(O)cc3)CC4=O)O[C@H](CO)[C@@H](O)[C@@H]2O)[C@H](O)[C@H](O)[C@H]1O [Naringin]
NOAEL (Rattus norvegicus; chronic, duration: 400 days, oral, diet, food consumption): 1250 mg/kg-day

C[C@@H]1C/C=C/C=C/C=C/C=C/[C@H](O[C@@H]2O[C@H](C)[C@@H](O)[C@H](N)[C@@H]2O)C[C@@H]2O[C@](O)(C[C@@H](O)C[C@H]3O[C@@H]3/C=C/C(=O)O1)C[C@H](O)[C@H]2C(=O)O [Natamycin]
NOAEL (Canidae; chronic, duration: 2 years, oral, diet, M/F, Beagle, body weight): 6.25 mg/kg-day | NOAEL (Rattus norvegicus; chronic, duration: 2 years, oral, diet, growth): 22.4 mg/kg-day

O=C(O)c1cc(=O)[nH]c(=O)[nH]1 [Orotic acid]
NOAEL (Rattus norvegicus; chronic, duration: 20 weeks, oral, diet, histopathology: neoplastic): 50 mg/kg-day

C=C(C)[C@@H]1NC(=O)[C@@H](NC)[C@@H](O)c2cc(Cl)c(O)c(c2)O[C@](C)(CC)[C@@H](C(=O)N2CC=C[C@H]2C(=O)N/C(C(=O)N/C(=C/C(=O)O)C(=O)O)=C(\C)CC)NC1=O [Phomopsin]
LD50 (Ovis sp.; injection, subcutaneous): ≥ 0.017 mg/kg | LD50 (Ovis sp.; oral): 1.34 mg/kg | LOAEL (Ovis sp.; subchronic, clinical chemistry): 12.5 mg/kg-day | LD50 (Sus scrofa; acute, mortality): 0.848 mg/kg

P [Phosphine]
LC50 (Danio rerio): 0.048 µg/mL (≈ 1.41 µM) | NOAEL (Rattus norvegicus; chronic, duration: 2 years, inhalation): 1.1 mg/kg-day | NOAEL (Rattus norvegicus; reproduction developmental, inhalation, mortality): 1.9 mg/kg-day | NOAEL (Rattus norvegicus; subchronic, duration: 90 days, inhalation, mortality): 1.1 mg/kg-day

O=C(/C=C/C=C/c1ccc2c(c1)OCO2)N1CCCCC1 [Piperine]
NOAEL (Rattus norvegicus; subchronic, duration: 90 days, oral, diet, M/F, Crj:CD, clinical chemistry): 5 mg/kg-day

O=Cc1ccc2c(c1)OCO2 [Piperonal]
NOAEL (Rattus norvegicus; chronic, duration: 2 years): 250 mg/kg-day

Cc1nc(N(C)C)nc(OC(=O)N(C)C)c1C [Pirimicarb]
LD50 (Colinus virginianus; acute, duration: 2 hours, oral, gavage, M/F, mortality): 20 mg/kg | LD50 (Colinus virginianus; acute, oral, diet, mortality): 370 mg/kg

[I-].[K+] [Potassium iodide]
LEL (Gallus gallus; repeat dose other, no effects): 5 mg/kg-day | LEL (Sus scrofa; repeat dose other, no effects): 8 mg/kg-day

SCCc1cnccn1 [Pyrazineethanethiol]
NOAEL (Rattus norvegicus; [2]): 1.63 mg/kg-day

CSc1cnccn1 [Pyrazinyl methyl sulfide]
NOAEL (Rattus norvegicus; [2]): 1.63 mg/kg-day

CC(C)(C)c1ccc(CSc2cnn(C(C)(C)C)c(=O)c2Cl)cc1 [Pyridaben]
NOEC (Anas platyrhynchos; chronic/long-term): 10 mg/kg-day | NOEC (Anas platyrhynchos; [1]): 659 mg/kg-day | LD50 (Colinus virginianus; acute, oral, mortality): > 2250 mg/kg-day | NOEC (Rattus norvegicus; chronic, M, body weight): 3.2 mg/kg-day

Oc1cccc(O)c1 [Resorcinol]
NOAEL (Mus musculus; chronic, duration: 104 weeks, clinical signs): 36 mg/kg-day | NOAEL (Rattus norvegicus; chronic, duration: 103 weeks, oral, gavage, Fischer 344, neurology): 36 mg/kg-day

CCSC(C)=O [S-Ethyl thiolacetate]
NOEL (Rattus norvegicus; subchronic, duration: 13 weeks, oral, diet): 6.5 mg/kg-day

CN(C)CC(=O)O.[H-].[Na+] [Sodium N,N-dimethylglycinate]
LEL (Gallus gallus; subchronic, duration: 39 days, oral, diet, M/F, food consumption): 10000 mg/kg-day

O=C1O[C@H]([C@H](O)CO)C([O-])=C1O.[Na+] [Sodium erythorbate]
NOAEL (Rattus norvegicus; chronic, duration: 2 years, oral, drinking water, M/F, Fischer 344, body weight): 650 mg/kg-day

O=C1[N-]S(=O)(=O)c2ccccc21.[Na+] [Sodium saccharin]
NOEC (Pontoscolex corethrurus; reproductive, duration: 56 days): 100 mg/kg

[Na+].[Na+].[O-]B1OB2OB([O-])OB(O1)O2 [Sodium tetraborate (Na2B4O7)]
NOAEL (Rattus norvegicus; developmental, duration: 20 days, F, Sprague-Dawley, development): 55 mg/kg-day

CN1COCN(Cc2cnc(Cl)s2)/C1=N/[N+](=O)[O-] [Thiamethoxam]
LD50 (Apis mellifera; dermal): 0.024 µg/piece (2×) and 0.0121 µg/piece | LD50 (Apis mellifera; duration: 48 hours, oral, unspecified): 0.00631 µg/piece | LD50 (Apis mellifera; duration: 72 hours, dermal): 5.55 g/ha | LD50 (Apis mellifera; oral, unspecified): 0.005 µg/piece (3×) and 0.00936 µg/piece

C[C@H]1CCCC(=O)CCC/C=C/c2cc(O)cc(O)c2C(=O)O1 [Zearalenone]
NOEL (Sus scrofa; reproduction developmental, F, morphology): 0.01 mg/kg-day

OC[C@H]1O[C@@H]2O[C@H]3[C@H](O)[C@@H](O)[C@@H](O[C@H]4[C@H](O)[C@@H](O)[C@@H](O[C@H]5[C@H](O)[C@@H](O)[C@@H](O[C@H]6[C@H](O)[C@@H](O)[C@@H](O[C@H]7[C@H](O)[C@@H](O)[C@@H](O[C@H]1[C@H](O)[C@H]2O)O[C@@H]7CO)O[C@@H]6CO)O[C@@H]5CO)O[C@@H]4CO)O[C@@H]3CO [alpha-Cyclodextrin]
NOAEL (Canidae; subchronic, duration: 90 days, oral, diet, M/F, Beagle, no effects): 10000 mg/kg-day

Clc1ccc(C(c2ccc(Cl)cc2)C(Cl)Cl)cc1 [p,p'-DDD]
NOAEL (Anas platyrhynchos; not reported, other): 0.06 mg/kg-day

ClC(Cl)=C(c1ccc(Cl)cc1)c1ccc(Cl)cc1 [p,p'-DDE]
LOAEL (Anas platyrhynchos; reproductive, development): 0.6 mg/kg-day
